Measurements as given in patent US20230250172A1, “IMPLANTABLE SCAFFOLDS AND USES THEREOF FOR IMMUNOTHERAPY AND OTHER USES” (The Regents of the University of California, priority 2019, published 2023).
“Also recorded” adds a separate entry of the source.

Experiments:
[1] = test system: formation of regulatory T cells (Treg), Foxp3 expression; experiment: in vitro inhibition of Treg formation (2D); assay type: cell-based, mouse
Experimental: (§1) For Treg formation experiments CD4+ T cells were purified from mouse spleen as mentioned above. Cells were then either activated on scaffolds or on anti-CD3e antibody (8 mg/ml) coated plates with the anti-CD28 antibody (2 mg/ml) supplemented medium. At the same time transforming growth factor-beta (TGF-beta; TGF-β) (15 ng/ml) was added to the media. After four days regulatory T cells were removed and stained with antibodies for flow cytometry analysis.
as §1, with “μg/mL)” for “mg/ml)”, “TGF-β” for “transforming growth factor-beta (TGF-beta; TGF-β)”, “ng/mL)” for “ng/ml)”, “removed, fixed, permeabilized,” for “removed”, “cytometric analysis of Foxp3 expression.” for “cytometry analysis.”

[2] = biological target: TGF-beta receptor (TβR); conditions: reported IC50 value (FIG. 13B); cited from earlier work
[3] = test system: B16-F10-Ova melanoma tumors; experiment: melanoma model, cell-free scaffold implanted adjacent to tumor; assay type: in vivo, mouse; conditions: for T cell recruitment and tumor clearance compared to control scaffolds: chemokine in full scaffold
From the text: 2-5×10^5 (2-5×105) B16F10-OVA tumor cells were subcutaneously injected into right or both (in the contralateral tumor model) right and left flanks of C57BL/6J WT mice (6-8 weeks old). These melanoma-derived cells are transfected to express chicken ovalbumin peptide (OVA)34. Five days after tumor cell injection, scaffolds were surgically implanted subcutaneously into the same approximate region of the tumors in both flanks. For cell-loaded studies, ex vivo activated OT-I T cells were transferred either intravenously using retro-orbital injections (100 microliters [μL] per animal) or implantable scaffolds at the same day. Tumor size was assessed over time using a digital caliber until day 22 at which animals were sacrificed and the tumor, draining lymph nodes, and spleen were extracted. Tumor mass was measured using a digital balance before digesting the tumor tissue for flow cytometry or fixing it for tissue sectioning. Tumors were digested by incubating in collagenase and DNase I (50 micrograms/mL [μg/mL]) at 37° C. for 15 min. These enzymes were inactivated with ethylenediamine tetra-acetic acid (EDTA) (20 microliters/mL [μL/mL] of solution). […] Tissue sections were imaged by a fluorescence microscope (KEYENCE™ BZ-X800, Osaka, Japan).
Typically, mice received subcutaneous injections of B16-F10 cells to their right flank followed by the scaffold implantation adjacent to the tumor once it was palpable. Without any further treatment animal's health was monitored and were euthanized 17 days afterwards. […]
2-5×10^5 B16F10-OVA or B16F10 tumor cells were subcutaneously injected into right or both (in the contralateral tumor model) right and left flanks of wild-type C57BL/6J WT mice (6-8 weeks old, Jackson Lab). […] Tumor size was assessed over time using a digital caliper until day 22 at which animals were sacrificed and the tumor, draining lymph nodes, and spleen were extracted.
Tumor masses were measured using a digital balance before digesting the tumor tissue for flow cytometry or fixing it for tissue sectioning. […]

[4] = test system: B16F10-OVA tumor cells; experiment: Transwell migration assay of tumor cells; assay type: cell-based, mouse; conditions: hydrogels containing CCL21; 8 h
Experimental: The migration assay to evaluate the role of chemokines on recruitment of T cells and melanoma cancer in the presence and absence of magnetic particles was performed using regular Transwell migration (Majedi, F. S. et al. Cytokine Secreting Microparticles Engineer the Fate and the Effector Functions of T-Cells. Adv. Mater. 30, 1703178 (2018)). […]
The migration assay to evaluate the role of chemokines on recruitment of T cells and melanoma cells in the presence and absence of chemokine-functionalized scaffolds was performed using regular Transwell migration as reported. […]

Cc1cccc(-c2nn3c(c2-c2ccnc4ccc(C(N)=O)cc24)CCC3)n1 [LY2157299, galunisertib]
Treg formation suppressed ([1]; 2D, aAPCs, soluble TGF-β in media, soluble TGFbi 10 uM or PLGA NPs with equivalent amount): about 40% | potency in suppressing Treg formation ([1]; at 1 nM concentrations, versus SB505124): about twice as potent as SB505124

Cc1cccc(-c2[nH]c(C(C)(C)C)nc2-c2ccc3c(c2)OCO3)n1 [SB505124]
IC50 [2]: 129 nM

CXCL12: stromal cell-derived factor 1 chemokine, used in the scaffold instead of CCL21
T cell recruitment and tumor clearance compared to control scaffolds [3]: successfully recruited T cells and helped clear tumors

B1: CCL21: chemokine (C-C motif) ligand 21, chemoattractant mixed into the scaffold (protein)
chain: SDGGGQDCCLKYSQKKIPYSIVRGYRKQEPSLGCPIPAILFSPRKHSKPELCANPEEGWVQNLMRRLDQPPAPGKQSPGCRKNRGTSKSGKKGKGSKGCKRTEQTQPSRG
recruitment of CD8+ T cells by chemokine released from scaffold ([3]; CCL21 versus SDF-1a (CXCL12), otherwise identical scaffolds): favors recruitment of CD8+ T cells more than SDF-1α; also recorded: favored recruitment of CD8+ T cells and disfavored CD4+ T cells as compared with CXCL12 | T cell recruitment and tumor clearance compared to control scaffolds [3]: successfully recruited T cells and helped clear tumors | recruitment of tumor cells (chemotaxis) [4]: no significant effect
